# Data reported in patent US10987429B2, “Inhibitor of ATP-dependent cellular reverse transporters and method for producing same” (AO “TATKHIMFARMPREPARATY”, priority 2016, dated 2021).
# Structures can show the parent of a compound that is named as a salt.
# What was measured:
# Format in all cases: cell-based, human
# MCF-7 cells = experiment: Microviscosity of plasma membranes, DPHT fluorescence polarization; conditions: OEP inhibitor 8.7, 87, 870 μg/ml, doxorubicin 1 μM, cholesterol 100 μg/ml, Triton X-100 0.05%, 1 hour
# Source text: (§1) A key physico-chemical characteristic of cell membranes that affects their physiological activity is microviscosity, a measure of lipid mobility in the bilayer, which plays an important role in membrane permeability and the functioning of membrane proteins. To assess the plasmalemma microviscosity, a fluorescent method is used, based on the use of a lipophilic indicator of diphenylhexatriene (DPHT), whose fluorescence depends on the cell membrane fluidity.
# (§2) Cell suspension with a density of 2×10^6 cells/ml was incubated with DPHT at a final concentration of 1 μM for 30 minutes. Next, aliquots (10 μl) of OEP inhibitor solutions were added to the cell suspension using a multichannel dispenser to a final concentration of 8.7; 87 and 870 μg/ml, as well as doxorubicin at a concentration of 1 μM and its composition with an OEP inhibitor (DOX 1 μM+OEP inhibitor 8.7 μg/ml; DOX 1 μM+OEP inhibitor 87 μg/ml). […] Immediately after introducing aliquots of samples, the fluorescence polarization of DPHT was detected for 1 hour with an interval of 10 minutes.
# MCF-7/Vin cells = experiment: as above; conditions: OEP inhibitor 8.7, 87, 870 μg/ml, doxorubicin 1 μM, cholesterol 100 μg/ml, Triton X-100 0.05%, 1 hour
# Source text: as §1, §2
# P-gp (ABCB1) = experiment: Immunoblotting of P-gp (ABCB1) expression in MCF-7 cells; conditions: 48 hours, doxorubicin 3 μM, OEP inhibitor 261 μg/ml, composition 3 μM: 261 μg/ml
# Protocol: MCF-7, MCF-7-ABCC1-DsRed (with over-expression of MRP-1), MCF-7-ABCC2-BFP (with over-expression of MRP-2), MCF-7-ABCB1-GFP (with P-gp over-expression) cells in concentrations of 3×10^4 cells/cm^2 were cultured in complete DMEM nutrient medium with either doxorubicin added to a final concentration of 3 μM; or an OEP inhibitor to a final concentration of 261 μg/ml; or doxorubicin-OEP inhibitor compositions to a final concentration of 3 μM: 261 μg/ml for 48 hours at 37° C. in the atmosphere of 5% CO2. An adapted and modified ABCAM protocol (http://www.abcam.com/ps/pdf/protocols/wb-beginner.pdf) was used to study proteins by immunoblotting (Western Blot). Monoclonal antibodies to ABCB1 (Cat. No. sc-13131, Santa Cruz) were used at a dilution of 1:200. Anti-mouse antibodies conjugated with HRP—(Cat. No ab6728, Abcam) at a dilution of 1:10,000 were used as secondary. Monoclonal antibodies to β-actin (Cat. No. mAbcam 8226, Abcam) were used at a dilution of 1:2000. The results of the analysis were visualized on ChemiDoc XRS+system (Bio-Rad).
Molecule,polarization of the fluorescence of DPHT (membrane microviscosity) (MCF-7 cells),polarization of the fluorescence of DPHT (membrane microviscosity) (MCF-7/Vin cells),"active glycosylated 190 kDa form of ABCB1, immunoblotting (P-gp (ABCB1))"
"COc1cccc2c1C(=O)c1c(O)c3c(c(O)c1C2=O)C[C@@](O)(C(=O)CO)C[C@@H]3O[C@H]1C[C@H](N)[C@H](O)[C@H](C)O1 [doxorubicin, Doxorubicin (DOX) hydrochloride]",did not significantly change,did not significantly change,increases the amount of the active form
"CC(C)CCC[C@@H](C)[C@H]1CC[C@H]2[C@@H]3CC=C4C[C@@H](O)CC[C@]4(C)[C@H]3CC[C@]12C [Cholesterol, cholesterol]",significantly increased,significantly increased,
Triton X-100,significant decrease,significant decrease,
